For 106 compounds, Kd results are on record in PubChem BioAssay AID608 (Sanford-Burnham Center for Chemical Genomics, 2007).

Activity calls are given as the source filed them. How the calls were made is not given here.

The target of this test is Peptidyl-prolyl cis-trans isomerase FKBP1A (Homo sapiens) (UniProt P62942). Nature of the test: FKBP12 binders, biophysical, NMR detection (AID 608). The following applies: NMR binding, purified FKBP12.
Chain of Peptidyl-prolyl cis-trans isomerase FKBP1A (Homo sapiens) (P62942 whole entry, looked up): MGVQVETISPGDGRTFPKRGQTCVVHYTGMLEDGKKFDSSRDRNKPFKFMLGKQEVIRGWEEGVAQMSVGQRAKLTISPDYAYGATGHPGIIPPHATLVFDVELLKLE
What is called Kd is the equilibrium constant for the complex coming apart. Consider `O=C(O)C1=Cc2ccccc2OC1`, for which the Kd is > 4 mM (inactive).
For `C=C1CCC2[C@](C)(CO)[C@H](O)CC[C@@]2(C)[C@@H]1C/C=C1/C(=O)OC[C@H]1O` (stereo partly specified), the Kd was > 4 mM (inactive).
Under `CSc1ncc(CO)n1Cc1ccccc1` stands > 4 mM (inactive).
`CCn1nnnc1Oc1ccc(Cl)cc1`: the Kd was > 4 mM (inactive).
Regarding `Cc1sc2nc[nH]c(=S)c2c1C`, the Kd was > 4 mM (inactive).
Under `N[C@@H](Cc1cc(I)c(Oc2cc(I)c(O)c(I)c2)c(I)c1)C(=O)O` stands > 4 mM (inactive); under `CC(=O)c1csc(-c2cc(C)on2)n1`, > 4 mM (inactive).
For `Cn1cnc2c(=O)[nH]cc([N+](=O)[O-])c21`, the Kd was > 4 mM (inactive).
As for `COc1c(O)cc2oc3cc(O)c(CC=C(C)C)c(O)c3c(=O)c2c1CC=C(C)C`, the Kd is > 4 mM (inactive).
For the compound `CC(C)c1ccc(SCC(=O)O)cc1`, the Kd was > 4 mM (inactive).
With `Nc1ccc2c(c1)OCO2`, the Kd is > 4 mM (inactive).
For `Cc1c(C(=O)N2CCOCC2)oc2c1C(=O)CC(C)(C)C2` the value was > 4 mM (inactive).
With `CC(C)c1ccc(SCC(=O)N2CCOCC2C(=O)O)cc1` (stereo unspecified), the Kd was 0.426 mM.
As for `O=C1CCNc2ccccc2N1`, the Kd is > 4 mM (inactive).
On to `CC(C)(C)C(=O)Nc1nnc(SCC(N)=O)s1`, for which the Kd was > 4 mM (inactive).
Consider `O=C(O)c1ccc(Nc2nncc(=O)[nH]2)cc1`, for which the Kd is > 4 mM (inactive).
For the compound `OCC1COc2ccccc2O1` (stereo unspecified), the Kd is > 4 mM (inactive).
For `COc1cc([C@@H]2c3cc4c(cc3[C@H](O)[C@H]3COC(=O)[C@@H]23)OCO4)cc(OC)c1OC` the value was > 4 mM (inactive); for `NCc1ccc(-n2cccc2)cc1`, > 4 mM (inactive).
For the compound `Cn1nnc2cc(C(=O)N3CCSCC3)ccc21`, the Kd was > 4 mM (inactive).
For `Cn1c(=O)c2ccccc2n(Cc2ccccc2F)c1=O`, the Kd was > 4 mM (inactive).
Consider `CC(=O)Oc1cc(-c2coc3cc(OC(C)=O)c(OC(C)=O)c(OC(C)=O)c3c2=O)cc(OC(C)=O)c1OC(C)=O`, for which the Kd was > 4 mM (inactive).
Take `Cc1occc1C(=O)N1CCN(S(C)(=O)=O)CC1`: the Kd is > 4 mM (inactive).
Under `CC(=O)CC1(O)C(=O)Nc2ccccc21` (stereo unspecified) stands > 4 mM (inactive).
With `O=C1CCCc2c1nc(-c1ccccc1)n2O`, the Kd is > 4 mM (inactive).
`CC(=O)Oc1ccc2c(c1OC(C)=O)OCC1(O)Cc3c(cc(OC(C)=O)c(OC(C)=O)c3OC(C)=O)C21` (stereo unspecified): the Kd was > 4 mM (inactive).
Under `CS(=O)(=O)c1ccc(N)cc1` stands > 4 mM (inactive); under `O=c1n(-c2cccc(Cl)c2)c(=O)n2n1CCC2`, > 4 mM (inactive); under `Nc1ccc(-c2cnco2)cc1`, > 4 mM (inactive).
As for `COc1cc(N)ncn1`, the Kd was > 4 mM (inactive).
Under `O=c1c2c(nc3nc(COc4ccccc4)[nH]n13)CCC2` stands > 4 mM (inactive).
Under `NC(=O)c1ccc(C(N)=O)cc1` stands > 4 mM (inactive).
For `CC(=O)N1CCn2c3c(c(=O)c4cc(C)ccc42)CCC31` (stereo unspecified) the value was > 4 mM (inactive).
For `O=C(Nc1ccc2c(c1)OCO2)c1ccc(=O)[nH]n1`, the Kd was > 4 mM (inactive).
Take `O=C1CNC(=O)/C1=C/c1ccc(O)cc1`: the Kd is > 4 mM (inactive).
For the compound `OC12CC3CC(C1)C1(NCCS1)C(C3)C2` (stereo unspecified), the Kd is > 4 mM (inactive).
Regarding `C=C1C(N)CC2CC1C2(C)C` (stereo unspecified), the Kd is > 4 mM (inactive).
Turning to `OCCOc1ccc(C2=NCCO2)cc1`, the Kd was > 4 mM (inactive).
`O=C(Nc1nccs1)c1ccc(=O)[nH]n1`: the Kd was > 4 mM (inactive).
For `O=C(O)CCC(=O)c1cccc2ccccc12` the value was > 4 mM (inactive); for `CSc1ccc(C2NC(=O)CCC2[N+](=O)[O-])cc1` (stereo unspecified), > 4 mM (inactive).
With `NS(=O)(=O)c1ccc(N2CCCC2=O)cc1`, the Kd was > 4 mM (inactive).
For `O=C(Nc1nnc(-c2ccncc2)o1)c1cccs1` the value was > 4 mM (inactive).
Take `Nc1nnc(SCc2ccc(F)cc2Cl)s1`: the Kd was > 4 mM (inactive).
`O=C(O)Cn1cc(C(F)(F)F)ccc1=O`: the Kd was > 4 mM (inactive).
`Oc1cnc2ccccc2c1CN1CCOCC1`: the Kd was > 4 mM (inactive).
On to `CC1=C(/C=C/C(C)=C/C=C/C(C)=C/C=C/C=C(C)/C=C/C=C(C)/C=C/C(=O)[C@]2(C)C[C@@H](O)CC2(C)C)C(C)(C)C[C@H](O)C1`, for which the Kd is > 4 mM (inactive).
Consider `CCCn1c(S(=O)(=O)O)nc2ccccc21`, for which the Kd was > 4 mM (inactive).
Turning to `Cc1cc(=O)c2ccccc2n1CC(N)=O`, the Kd is > 4 mM (inactive).
As for `Cn1cccc1C(=O)NS(=O)(=O)c1ccccc1Cl`, the Kd is > 4 mM (inactive).
`CCOC(=O)c1cc2ccccc2oc1=O`: the Kd was > 4 mM (inactive).
Turning to `C=C1CSc2nc(=O)c3c(C)c(C)sc3n21`, the Kd is > 4 mM (inactive).
As for `O=C1CSC(=Nc2ccccc2)N1`, the Kd was > 4 mM (inactive).
Take `O=C(O)c1ccc(-c2ccccn2)s1`: the Kd was > 4 mM (inactive).
In the case of `NCc1nnnn1-c1ccccc1`, the Kd was > 4 mM (inactive).
Regarding `Cc1nn(-c2ccccc2)nc1C(=O)O`, the Kd was > 4 mM (inactive).
As for `CC(=O)NCCc1cc2ccc(C)c(C)c2[nH]c1=O`, the Kd is > 4 mM (inactive).
As to `O=S(=O)(NCc1ccco1)c1cccc2cccnc12`, the Kd was > 4 mM (inactive).
For the compound `O=C(O)CSc1cccc2cccnc12`, the Kd was > 4 mM (inactive).
For the compound `O=C1CCC(=O)N1CNc1ccccc1`, the Kd is > 4 mM (inactive).
For the compound `COC(=O)c1cnccc1C(F)(F)F`, the Kd was > 4 mM (inactive).
As to `O=c1c2ccccc2oc2ccc(O)cc12`, the Kd is > 4 mM (inactive).
Turning to `CC(C)=NNC(=O)C(=O)Nc1ccc(F)cc1`, the Kd is > 4 mM (inactive).
For the compound `NC(=O)c1c[nH]c2ccccc12`, the Kd is > 4 mM (inactive).
In the case of `CNC(=O)c1cc(S(=O)(=O)N(C)C)ccc1Cl`, the Kd was > 4 mM (inactive).
With `O=S(=O)(Nc1ccc(F)cc1)N1CCCCC1`, the Kd entry is “inactive”.
Under `CC(=O)Oc1ccc2c(c1C(C)C)CCC1C(C)(C)CCC[C@]21C` (stereo partly specified) stands > 4 mM (inactive).
With `Cc1cc2c(N)cccc2nn1`, the Kd was > 4 mM (inactive).
For `O=C(Nc1ccccc1F)c1ccncc1`, the Kd was > 4 mM (inactive).
On to `O=S1(=O)CCC(NC(=S)Nc2ccccc2)C1` (stereo unspecified), for which the Kd is > 4 mM (inactive).
On to `COC(=O)C[C@@H]1C2(C)C(=O)[C@@H](CC3C2CC[C@]2(C)C3CC(=O)O[C@H]2c2ccoc2)[C@H](OC(C)=O)C1(C)C` (stereo partly specified), for which the Kd was > 4 mM (inactive).
For `CC(=O)Nc1sc(C)c(C)c1C(N)=O` the value was > 4 mM (inactive); for `O=C(C1CCCCC1)N1CCN(c2ccccc2F)CC1`, > 4 mM (inactive).
Consider `COc1cc(C2NC(=S)NC(C)=C2C(C)=O)ccc1O` (stereo unspecified), for which the Kd was > 4 mM (inactive).
Turning to `CCOC(=O)CNc1ncnc2c1nnn2CC`, the Kd is > 4 mM (inactive).
As for `Cn1nnc2cc(C(=O)NC3CCCCC3)ccc21`, the Kd was > 4 mM (inactive).
For `CCCn1cnn2c(=O)cc(C)nc12` the value was > 4 mM (inactive); for `CCOC(=O)C1C(C=C(C)C)C1(C)C` (stereo unspecified), > 4 mM (inactive); for `O=C(c1nc2ccccc2s1)N1CCSCC1`, > 4 mM (inactive).
As for `COc1cc(OC)c(-c2c(OC)cc(OC)cc2OC)c(OC)c1`, the Kd was > 4 mM (inactive).
For `CN1CCC(O)N1C(=O)c1ccccc1O` (stereo unspecified) the value was > 4 mM (inactive).
Consider `CC1=CCc2c(cc3oc(C)cc(=O)c3c2O)OC1`, for which the Kd was > 4 mM (inactive).
Turning to `Cc1ccc(N2C(=O)CCC2=O)cc1`, the Kd was > 4 mM (inactive).
Take `CNc1nnc(Cc2csc(N)n2)s1`: the Kd is > 4 mM (inactive).
For `O=C1C2=C(SCCS2)C(=O)N1CCCO` the value was 0.251 mM; for `CC1SC(=NC(=O)c2ccco2)NC1=O` (stereo unspecified), > 4 mM (inactive).
Under `Nc1[nH]c(=S)[nH]c(=O)c1-c1ccccc1` stands > 4 mM (inactive); under `C/C(=N\NC(N)=S)C(=O)O`, > 4 mM (inactive).
In the case of `Cc1nnsc1C(=O)Nc1cccc(S(N)(=O)=O)c1`, the Kd is > 4 mM (inactive).
On to `CC(=O)c1sc(NC(=O)C=C(C)C)nc1C`, for which the Kd is > 4 mM (inactive).
Turning to `COc1ccc2c(c1)OCC(Cc1ccc(OC)c(OC(C)=O)c1)C2=O` (stereo unspecified), the Kd was > 4 mM (inactive).
For `CSc1n[nH]c(NCc2cccs2)n1`, the Kd was > 4 mM (inactive).
For the compound `CN(C)C(=O)C12CCC(C)(C(=O)O1)C2(C)C` (stereo unspecified), the Kd was > 4 mM (inactive).
On to `CN1CCC(NC(=O)c2cnccn2)CC1`, for which the Kd is > 4 mM (inactive).
Consider `OCc1ccncc1`, for which the Kd is > 4 mM (inactive).
For `CCOc1ccc(NS(=O)(=O)N2CCOCC2)cc1` the value was > 4 mM (inactive); for `O=C(Nc1ccon1)c1csc2ccccc12`, > 4 mM (inactive).
Under `COc1cc(CNCc2cccs2)ccc1OCC(=O)N1CCOCC1` stands > 4 mM (inactive); under `O=C(COc1ccccc1)N1CCc2ccccc2C1`, > 4 mM (inactive).
On to `COc1cc(OC)c2c(=O)c(-c3ccc4c(c3)OCO4)coc2c1`, for which the Kd is > 4 mM (inactive).
As to `Cc1cc(C)nc(/N=C(/N)Nc2cccc(F)c2)n1`, the Kd is > 4 mM (inactive).
Turning to `Cc1ccccc1C(=O)Nn1cnnc1`, the Kd was > 4 mM (inactive).
On to `O=C(NCCO)c1cc2ccccc2cc1O`, for which the Kd was > 4 mM (inactive).
Under `O=C1c2ccccc2C(=O)c2c(O)c(O)cc(O)c21` stands > 4 mM (inactive); under `O=C(c1sc2cc(Cl)ccc2c1Cl)N1CCOCC1`, “inactive”.
`Cc1csc2nc(N)nn12`: the Kd was > 4 mM (inactive).
